Measurements reported in patent US11865129B2, “Application of anemoside B4 in preparation of a drug for treatment or prevention of psoriasis” (GUANGXI XINHAI PHARMACEUTICAL TECHNOLOGY CO., LTD., priority 2021, dated 2024).

Experiments:
VEGF = VEGF level in serum by ELISA, psoriasis model rats; type: in vivo, SD male rats; details: 7 days, vs model control group
Protocol: (§1) 60 SPF-grade SD male rats in the second animal group are divided into 6 groups: a blank control group, a model control group, an anemoside B4 intragastric administration group (5 mg/kg), an anemoside B4 intragastric administration group (10 mg/kg), an anemoside B4 intragastric administration group (20 mg/kg), and an acitretin intragastric administration group (5 mg/kg), and are respectively expressed into the blank control group, the model group, anemoside B4 5 mg/kg, anemoside B4 10 mg/kg, anemoside B4 20 mg/kg, and acitretin 5 mg/kg in FIGS. 3, 4 and 5 for convenience. A shaving area on the back of the rats in each group is 2.5 cm×3 cm, and the vellus is removed with mild depilatory cream. The rats of each group except the blank control group are modeled by administrating 62.5 mg 5% imiquimod cream on the shaving area until the skin is thickened and has erythema and silver scales for modeling completely.
(§2) 5% imiquimod cream is administrated once a day, and continuously administrated for 8 days for model establishment. On the second day, the rats in each group are continuously intragastric (i.g.) administered drugs for 7 days.
(§3) After administration, blood is taken from abdominal aorta of the rats in each group of the second animal group, centrifuged to collect the serum, and measured the M-CSF, VEGF, IL-6 and IL-17 level in the serum by ELISA kits according to the procedures of specification.

[1] = system: 5% imiquimod-induced psoriatic lesions; test: Psoriatic lesions and PASI, 5% imiquimod-induced psoriasis model in rats (second animal group); type: in vivo, SD male rats; details: 7 days; for erythema and skin lesions of the rats: compared to model control group; for PASI: compared with model control group
Protocol: as §1, §2
The psoriasis area and severity index (PASI) of the mice in the first animal group and the rats in the second animal group is performed by taking photographs of the shaving area, giving 0-4 scores for the degree of erythema, scales and infiltration thickness in the skin lesions according to a PASI standard, and obtaining the total scores by summing the scores of the three parts; wherein the PASI standard is as follows: none 0, mild 1, moderate 2, severe 3, and extremely severe 4.

spleen = test: Spleen coefficient, psoriasis model mice; type: in vivo, BALB/c male mice; details: 12 days, compared with model control group
Protocol: (§4) A shaving area on the back of the mice in each group is 2.5 cm×3 cm, and the vellus is removed with mild depilatory cream. The mice of each group except the blank control group are modeled by administrating 62.5 mg 5% imiquimod cream on the shaving area until the skin is thickened and has erythema and silver scales for modeling completely. During the model establishment, 5% imiquimod cream is administrated once a day, and continuously administrated for 14 days. On the third day, the model establishment is continued and drugs are administered at the same time, wherein the mice in the AC intragastric administration group (8 mg/kg), the anemoside B4 intragastric (i.g.) administration group (5 mg/kg), the anemoside B4 intragastric administration group (10 mg/kg), and the anemoside B4 intragastric administration group (20 mg/kg) are administrated once a day, and continuously administrated for 12 days. […] The mice in the blank control group and the model control group are applied 62.5 mg Vaseline to the skin lesions once a day, and continuously applied for 12 days. The weight of the mice is recorded for counting the weight change of the mice. After blood collection of the mice in each group of the first animal group, the mice are killed by dislocation of cervical vertebra, quickly separated the spleen and weighed to obtain the wet weight of the spleen, recording and calculating the spleen coefficient, wherein the spleen coefficient (%)=(spleen wet weight/body weight)×100%.

[2] = Weights of mice, 5% imiquimod-induced psoriasis model (first animal group); type: in vivo, BALB/c male mice; details: for weights of the mice / weight loss of the mice caused by psoriasis: 12 days; for weights of the mice: compared with blank control group; for weight loss of the mice caused by psoriasis: compared with model control group
Protocol: as §4, with “mice.” for “mice. After blood collection of the mice in each group of the first animal group, the mice are killed by dislocation of cervical vertebra, quickly separated the spleen and weighed to obtain the wet weight of the spleen, recording and calculating the spleen coefficient, wherein the spleen coefficient (%)=(spleen wet weight/body weight)×100%.”

IL-6 = IL-6 level in serum by ELISA, psoriasis model rats; type: in vivo, SD male rats; details: 7 days, vs model control group
Protocol: as §1, §2, §3

psoriasis skin lesions = test: Histopathological observation of skin (HE staining), psoriasis model mice; type: in vivo, BALB/c male mice; details: 12 days
Protocol: as §4, with “vertebra,” for “vertebra, quickly”, “skin in the skin lesions,” for “spleen”, “removed subcutaneous fat. Taking a part, fixing it with 4% paraformaldehyde, embedding, obtaining section, dying with hematoxylin and eosin (HE), and observing histopathological changes” for “weighed to obtain the wet weight”, “skin under a light microscope.” for “spleen, recording and calculating the spleen coefficient, wherein the spleen coefficient (%)=(spleen wet weight/body weight)×100%.”

[3] = intragastric 5 mg/kg once a day
[4] = intragastric 10 mg/kg once a day
[5] = intragastric 20 mg/kg once a day

With `C=C(C)[C@@H]1CC[C@]2(C(=O)O[C@@H]3O[C@H](CO[C@@H]4O[C@H](CO)[C@@H](O[C@@H]5O[C@@H](C)[C@H](O)[C@@H](O)[C@H]5O)[C@H](O)[C@H]4O)[C@@H](O)[C@H](O)[C@H]3O)CC[C@]3(C)[C@H](CC[C@@H]4[C@@]5(C)CC[C@H](O[C@@H]6OC[C@H](O)[C@H](O)[C@H]6O[C@@H]6O[C@@H](C)[C@H](O)[C@@H](O)[C@H]6O)[C@@](C)(CO)[C@@H]5CC[C@]43C)[C@H]12` [anemoside B4] the “VEGF level in serum” value (VEGF; intragastric 5 mg/kg) was “significantly decreased”, the “VEGF level in serum” value (VEGF; intragastric 10 mg/kg) was “significantly decreased” and the “VEGF level in serum” value (VEGF; intragastric 20 mg/kg) was “significantly decreased”. For the same compound, the “erythema and skin lesions of the rats” value ([1]; intragastric 5 mg/kg) was “lightened”, the “erythema and skin lesions of the rats” value ([1]; intragastric 10 mg/kg) was “lightened” and the PASI ([1]; intragastric 10 mg/kg) was “significantly decreased”. For the same compound, the “erythema and skin lesions of the rats” value ([1]; intragastric 20 mg/kg) was “lightened”, the PASI ([1]; intragastric 20 mg/kg) was “significantly decreased” and the “enlargement of the spleen” value (spleen; [3]) was “significantly relieved”. For the same compound, the spleen coefficient (spleen; [3]) was “significantly decreased”, the “enlargement of the spleen” value (spleen; [4]) was “significantly relieved” and the spleen coefficient (spleen; [4]) was “significantly decreased”. The “enlargement of the spleen” value (spleen; [5]) was “significantly relieved”, the spleen coefficient (spleen; [5]) was “significantly decreased” and the “reversal of weight loss caused by imiquimod, compared with the acitretin capsules (AC) intragastric administration group” value ([2]; anemoside B4 groups, doses not specified) was “better”. For the same compound, the “weights of the mice” value [2, 3] was “significantly decreased”, the “weight loss of the mice caused by psoriasis” value (from here on “weight loss of the mice caused”) [2, 3] was “can be improved” and the “weights of the mice” value [2, 4] was “significantly decreased”. For the same compound, the “weight loss of the mice caused” value [2, 4] was “can be improved”, the “weights of the mice” value [2, 5] was “significantly decreased” and the “weight loss of the mice caused” value [2, 5] was “can be improved”. The “IL-6 level in serum” value (IL-6; intragastric 5 mg/kg) was “significantly decreased”, the “IL-6 level in serum” value (IL-6; intragastric 10 mg/kg) was “significantly decreased” and the “IL-6 level in serum” value (IL-6; intragastric 20 mg/kg) was “significantly decreased”. For the same compound, the “psoriasis skin lesions, HE staining of skin tissue” value (“psoriasis skin lesions, HE staining” for short) (psoriasis skin lesions; [3]) was “significantly improved”, the “psoriasis skin lesions, HE staining” value (psoriasis skin lesions; [4]) was “significantly improved” and the “psoriasis skin lesions, HE staining” value (psoriasis skin lesions; [5]) was “significantly improved”.
